Here are results for 1 substance from patent US20020192314A1, “Dietary supplement compositions” (priority 2001, published 2002).

The assay relates to LDL cholesterol. The experiment in a line: LDL cholesterol oxidation lag time, copper ions, absorbance at 234 nm. The format is biochemical, human. The following applies: copper ions 5 μmole/L. On the procedure:
The antioxidant properties of a dietary supplement can be measured using an assay for LDL cholesterol oxidation. Briefly, blood samples are drawn and LDL cholesterol is isolated. The isolated LDL cholesterol is combined with a dietary supplement to be evaluated, and the time (i.e., lag time) before cholesterol oxidation is observed is measured. Copper ions accelerate the production of conjugated dienes due to oxidation, while antioxidants prolong the onset of diene production. Since dienes absorb light at 234 nm, LDL cholesterol oxidation can be monitored by examining the absorbance at 234 nm as a function of time. Thus, the antioxidant properties of, for example, a dietary supplement or other compound can be evaluated by determining the time elapsed before LDL cholesterol oxidation is observed.
LDL cholesterol oxidation is usually determined by measuring absorbance at 234 nm (AbS234 nm) as a function of time under oxidative conditions. The antioxidant effectiveness of various grape seed extracts was determined. LDL cholesterol was prepared from human volunteer blood samples as described above. Isolated LDL cholesterol was then mixed with a buffer, vitamin E, or grape seed extract. Copper ions (5 μmole/L final concentration) were added to each sample. Grape seed extracts were prepared at 0.5 or 1.0 mg/L final concentration. […]

For the substance Vitamin E, the “time LDL cholesterol protected from oxidation” value is reported as “about 125 min”. For the same substance, the “LDL oxidation lag time” value (grape seed extract 0.5 mg/L, vitamin E amount comparable to blood level after 400 IU) came out at 125 min.
